# Patent US20130065226A1, “METHOD OF DETERMINING DOSE AND ADMINISTRATION OF STATIN” (TOHOKU UNIVERSITY, priority 2011, published 2013)
# Where a SMILES comes first, the peptide text is derived from it. The star is where a group is joined. Cbz = O=C(OCc1ccccc1)*
# Key:
# SmgGDS [1] = assay: Protein expression in HUVEC subcellular fractions: SmgGDS; type: cell-based, human; settings: HUVEC cytoplasm fraction, 24 h; atorvastatin 10 μM, pitavastatin 1 μM
# SmgGDS [2] = assay: SmgGDS expression in HUVEC after 24 h drug treatment (western blot); type: cell-based, human; settings: 24 h treatment, atorvastatin 10 and 30 μM, pitavastatin 1 and 10 μM
# [3] = system: AngII-induced production of ROS in HUVEC; assay: Reactive oxygen species analysis (DCF staining) in siRNA-transfected HUVEC; type: cell-based, human; settings: atorvastatin 1 μM or pitavastatin 0.1 μM 24 h, then 1 μM AngII 3 h
# Protocol: (§1) An AngII-induced cardiovascular hypertrophy model in mice was produced according to Yagi et al.'s literature (Yagi, S. et al., Circ. Res. 102, 68-76 (2008)). Statins were administered to mice by gavage every day for 2 weeks. After 2 weeks of sustained AngII administration by means of osmotic pump, the present inventors observed the left ventricular function and measured the weight of the heart of each mouse by means of an ultrasound imaging system. […] After a 2 weeks washout period, the subjects were switched to take an alternative medicine for additional 2 weeks.
# (§2) Multiple siRNAs duplexes specific to SmgGDS were purchased from Qiagen. A functional non-targeting siRNA that was bioinformatically designed by Qiagen was used as a control. Either 10 nM control siRNA or 10 nM siRNA that was specific to SmgGDS was transfected into HUVEC with HiPerFect transfection Reagent (Qiagen). After 72 hour post-transfection, the cells were analyzed by either Wester blot or ROS analysis.
# The present inventors treated HUVEC with AngII (1μM, Wako) at 37° C. in 5% CO2 for 3 hours, washed them with PBS and stained them with 2,7-dichlorofluoroscein diacetate (H2DCF-DA) (5 μM, Cayman) at 37° C. for 30 minutes to visualize the ROS production as green fluorescence (488 nm) through a fluorescence microscope (BIOREVO, Keyence). The relative fluorescence intensity was measured by means of BZ-II analyzer (Keyence) software.
# Racl [4] = assay: Protein expression in HUVEC subcellular fractions: Racl (with or without proteasome inhibitor MG-132)
# Racl [5] = assay: Racl expression in control or SmgGDS siRNA-transfected HUVEC; type: cell-based, human; settings: control siRNA-transfected HUVEC, statin 24 h
# Protocol: as §1, §2
# RhoA/Rho-kinase = settings: normal and healthy volunteers, 20 mg day^−1 for 1 week; cited from earlier work
# [6] = Body weight, blood pressure and plasma lipid profiles in AngII-infused mice; type: in vivo; settings: ATOR 10 mpk, PRA 50 mpk; for Systolic blood pressure / HDL cholesterol / LDL-cholesterol / Total cholesterol / Triglyceride: 2 weeks; for Systolic blood pressure / Body weight: mean ± s.e.m.; for Body weight: gavage daily 2 weeks; for HDL cholesterol / LDL-cholesterol / Total cholesterol / Triglyceride: plasma
# Protocol: as §1
# The present inventors conducted all mouse experiments in accordance with experimental protocols that were approved by the Animal Care and Use Committee of the Tohoku University Graduate School of Medicine. The present inventors used an AngII-induced cardiovascular hypertrophy model (see Yagi, S . et al . , Circ. Res. 102. 68-76 (2008)) to assess the effect of SmgGDS deficiency on the pleiotropic effects of low-dose statins. The present inventors infused 2.0 mg kg^−1 day^−1 or saline for 2 weeks in 10-week-old male SmgGDS^+/+ littermate control mice and SmgGDS^+/− mice. The inventors dissolved AngII in sterile saline and infused it via osmotic mini-pumps (Alzet model 2002, Alze Corp.). The inventors anesthetized the animals with isofluorane. Then, the inventors prepared subcutaneous pockets in the isofluorane-anesthetized mice and placed the pumps into the subcutaneous pockets through a small incision in the back that was closed by suturing. Either statin or vehicle was administered to both the AngII-infused and saline-infused mouse by gavage every day for 2 weeks . All incision sites rapidly healed without any infection. Systolic blood pressure was measured by using a non-invasive tail-cuff system (MK-2000, Muromachi) 2 weeks after the pump implantation. Plasma lipids (triglycerides, total cholesterol, LDL-cholesterol and HDL-cholesterol) were analyzed with the high-performance liquid chromatography system of Skylight Biotech. Echocardiographic analysis was performed by using an ultrasound imaging system (Vevo 2100, VisualSonic Inc.). The mice were shaved and M-mode images of the left ventricle were recorded while the heart rate was kept at about 500 bpm.
# [7] = Human study: plasma lipid profiles, glucose, insulin and HOMA-IR; type: in vivo
# Text: (§3) The exclusion criteria included abnormal liver or kidney dysfunction before and during the statin administration and treatment.
# SmgGDS [8] = assay: Human study: SmgGDS expression in circulating leukocytes (western blot); type: in vivo
# Text: as §3
# Racl [9] = settings: normal and healthy volunteers, 20 mg day^−1 for 1 week; cited from earlier work
# [10] = control siRNA-transfected HUVEC
# [11] = healthy volunteers, 20 mg day^−1, after 2 weeks vs baseline
# [12] = healthy volunteers, fasting, 20 mg day^−1 oral, 2 weeks
smiles,measurement,setting,value
O=C(O)C[C@H](O)C[C@H](O)/C=C/c1c(C2CC2)nc2ccccc2c1-c1ccc(F)cc1 [pitavastatin],cytoplasmic SmgGDS level,SmgGDS [1],increased the cytoplasmic SmgGDS level
same,SmgGDS expression level in HUVEC,SmgGDS [2],increased SmgGDS expression in HUVEC in a concentration-dependent manner
same,AngII-induced production of ROS,[3]; SmgGDS siRNA-transfected HUVEC,The same results were also obtained
same,AngII-induced production of ROS,[3]; [10],The same results were also obtained
same,intra-nuclear Racl level,"Racl [4]; HUVEC nucleus fraction, 24 h, atorvastatin 10 μM, pitavastatin 1 μM",decreased the intra-nuclear Racl level
Cn1cc(C2=C(c3ccc(Cl)cc3Cl)C(=O)NC2=O)c2ccccc21 [SB216763],SmgGDS expression level in HUVEC,SmgGDS [2],increased the SmgGDS expression level in a concentration-dependent manner
CC(C)C[C@@H](C=O)NC(=O)[C@H](CC(C)C)NC(=O)[C@H](CC(C)C)NC(=O)OCc1ccccc1 [MG-132] (Cbz-Leu-Leu-Leu-aldehyde),effect of MG-132 on statin-triggered decrease of Racl expression in the nucleus,Racl [4]; HUVEC co-treated with atorvastatin and MG-132,inhibited the decreased Racl expression level triggered by atorvastatin in the nucleus
CC(C)c1c(C(=O)Nc2ccccc2)c(-c2ccccc2)c(-c2ccc(F)cc2)n1CC[C@@H](O)C[C@@H](O)CC(=O)O [atorvastatin],Racl expression level in whole cells,Racl [5],decreased Racl expression level in whole cells
same,RhoA/Rho-kinase activity in circulating leucocytes,RhoA/Rho-kinase,without suppressing the RhoA/Rho-kinase activity
same,Systolic blood pressure,[6]; AngII-infused SmgGDS+/+ mice,146.7 ± 7.6 mmHg
same,Body weight,[6]; AngII-infused SmgGDS+/+ mice,27.5 ± 1.1 g
same,Systolic blood pressure,[6]; AngII-infused SmgGDS+/− mice,140.4 ± 4.4 mmHg
same,Body weight,[6]; AngII-infused SmgGDS+/− mice,26.9 ± 0.5 g
same,HDL cholesterol,[6]; AngII-infused SmgGDS+/+ mice,76.3 ± 6.8 mg/dL
same,LDL-cholesterol,[6]; AngII-infused SmgGDS+/+ mice,13.7 ± 1.6 mg/dL
same,Total cholesterol,[6]; AngII-infused SmgGDS+/+ mice,98.3 ± 7.7 mg/dL
same,Triglyceride,[6]; AngII-infused SmgGDS+/+ mice,67.0 ± 11.0 mg/dL
same,HDL cholesterol,[6]; AngII-infused SmgGDS+/− mice,81.9 ± 4.8 mg/dL
same,LDL-cholesterol,[6]; AngII-infused SmgGDS+/− mice,13.6 ± 1.8 mg/dL
same,Total cholesterol,[6]; AngII-infused SmgGDS+/− mice,102.3 ± 6.9 mg/dL
same,Triglyceride,[6]; AngII-infused SmgGDS+/− mice,81.4 ± 20.1 mg/dL
same,cytoplasmic SmgGDS level,SmgGDS [1],increased the cytoplasmic SmgGDS level
same,SmgGDS expression level in HUVEC,SmgGDS [2],increased SmgGDS expression in HUVEC in a concentration-dependent manner
same,"HDL-cholesterol, Change (%)",[7]; [11],0%
same,"LDL-cholesterol, Change (%)",[7]; [11],−46%
same,"MDA-LDL, Change (%)",[7]; [11],−38%
same,"RLP cholesterol, Change (%)",[7]; [11],−35%
same,"Total cholesterol, Change (%)",[7]; [11],−30%
same,"Triglyceride, Change (%)",[7]; [11],−33%
same,"HDL-cholesterol, After 2 weeks",[7]; [12],60 ± 2.7 mg/dL
same,"LDL-cholesterol, After 2 weeks",[7]; [12],64 ± 3.4 mg/dL
same,"MDA-LDL, After 2 weeks",[7]; [12],73 ± 4.5 U l^−1
same,"RLP cholesterol, After 2 weeks",[7]; [12],2.6 ± 0.1 mg/dL
same,"Triglyceride, After 2 weeks",[7]; [12],73 ± 6.5 mg/dL
same,"Total cholesterol, After 2 weeks","[7]; healthy volunteers, fasting, 20 mg day^−1 oral, 2 weeks, mean ± s.e.m., n = 20",138 ± 3.8 mg/dL
same,concentration level of total cholesterol and of LDL-cholesterol in blood,"[7]; normal healthy adult volunteers, 20 mg day^−1 oral, 2 weeks",reduced the concentration level of total cholesterol and that of LDL-cholesterol in blood
same,SmgGDS expression in leukocytes in circulating blood,"SmgGDS [8]; healthy volunteers, 20 mg day^−1, 2 weeks, vs pre-administration level, n=20",significantly increased
same,"increase of SmgGDS in leukocytes, average of the 20 volunteers","SmgGDS [8]; healthy volunteers, 20 mg, 2 weeks, vs before administration",about 1.5 times
same,increase in SmgGDS,"SmgGDS [8]; the 4 volunteers without increase at 10 mg pravastatin, after switching from pravastatin to atorvastatin",3 volunteers out of the above 4 volunteers showed an increase of SmgGDS
same,AngII-induced production of ROS,[3]; [10],decreased the AngII-induced production of ROS
same,Racl activity in circulating leucocytes,Racl [9],significantly inhibit Racl activity
